Laboratory results as given in PMC2263054, “Functional evolution of the vitamin D and pregnane X receptors” (BMC Evolutionary Biology, 2007).

Experiments:
[1] = target: T1, Zebrafish VDR (Danio rerio, UniProt Q9PTN2); assay: luciferase reporter transactivation assay in HepG2-NTCP cells, GAL4/zfVDR LBD chimera with tk-UAS-Luc; type: cell-based; conditions: HepG2-NTCP cells, luciferase reporter; unit not given; also cells saying No effect
T1 sequence (Q9PTN2 121-453): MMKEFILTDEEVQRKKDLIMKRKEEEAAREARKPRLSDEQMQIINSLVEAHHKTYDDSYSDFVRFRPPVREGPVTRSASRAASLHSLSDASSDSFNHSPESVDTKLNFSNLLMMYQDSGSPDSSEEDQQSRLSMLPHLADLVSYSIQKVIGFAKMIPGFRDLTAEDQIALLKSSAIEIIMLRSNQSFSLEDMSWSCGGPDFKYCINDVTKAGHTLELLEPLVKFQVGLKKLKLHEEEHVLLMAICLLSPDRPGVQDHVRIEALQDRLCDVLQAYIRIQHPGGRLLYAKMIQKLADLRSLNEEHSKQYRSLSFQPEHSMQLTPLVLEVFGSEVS

[2] = tested on: Ciona VDR/PXR; conditions: HepG2-NTCP cells, luciferase reporter; unit not given; also cells saying No effect
[3] = tested on: PXR; assay: zebrafish in vivo liver transcription, semi-quantitative RT-PCR: PXR
Experimental: Adult zebrafish were purchased from a commercial fish supplier and acclimatized for at least two-weeks in 20 L tanks with flow-through freshwater at 22°C. A single dose of 15 mg/kg of 5α-cyprinol, 5β-cyprinol 27-sulfate, 5α-scymnol or 5β-scymnol-27 sulfate, dissolved in saline, was injected intraperitoneally. A control group was injected with saline. After 48 hr, the animals were decapitated and livers of three fish (n = 5 each group) were removed, pooled and weighed, totalizing 15 fish per group. Fish were not fed throughout the experimental period. […].
(§1) To study the transcription of CYP3C1, ABCB5, PXR, GAPDH and β-actin genes in zebrafish, initial fragments of these genes were identified (Genbank: AW202769, Genbank: BQ284593, Genbank: AAM22215, Genbank: BC083506, Genbank: AF057040, respectively). The PCR primers for CYP3C1 were designed using MacVector Software and primers for MDR1 were designed using Primer 3 Software (Whitehead Institute for Biomedical Research; [75]). Primer pairs for amplifying CYP3C1 fragment were 5'-[…]-3' (sense) and 5'-[…]-3' (antisense) and for amplifying ABCB5 were 5'-[…]-3' (sense) and 5'-[…]-3' (antisense). The PCR primers for PXR were 5'-[…]-3' (sense) and 5'-[…]-3' (antisense), for amplifying GAPDH were 5'-[…]-3' (sense) and 5' […] 3' (antisense) and for β-actin were 5'-[…]-3' (sense) and 5'-[…]-3' (antisense). RNA was isolated using Trizol (Invitrogen) according to manufacturer's instructions. Purity and concentration of RNA of each sample were verified at 260 nm. The RNA integrity was checked by non-denaturing gel electrophoresis using 1 μg of total RNA in each sample.
Two micrograms of total RNA were reversed transcribed using Ominiscript RT Kit (Qiagen, Valencia, CA, USA). cDNA concentration was checked at 260 nm, and the amount adjusted to 1 μg to perform semi-quantitative RT-PCR. The expected size of the PXR, Cyp3C1, abcb5, GAPDH and β-actin fragments were 577, 477, 218, 234 and 550 bp, respectively. Biotools DNA polymerase (Biotools B&M Labs, S.A., Madrid, Spain) kit was used for the PCR reaction using a thermocycler Personal Mastercycler (Eppendörf) with the following PCR program: 5 cycles of 94°C for 5 s, 72°C for 35 s; 5 cycles of 94°C for 5 s, 70°C for 10 s, 72°C for 35 s; and 23, 24, 35, 15 and 24 cycles (PXR, Cyp3C1, abcb5, GAPDH and β-actin, respectively) of 94°C for 5 s, 61, 54, 48, 49 and 61°C for 10 s (PXR, Cyp3C1, abcb5, GAPDH and β-actin, respectively), and 72°C for 35 s. The PXR, CYP3C1, ABCB5 and GAPDH transcript levels were quantified using Gel-Quant™ (Multiplexed Biotechologies) and β-actin was used to normalize the data. The Shapiro-Wilk W test was used to evaluate normality. When data were parametric the analysis was performed using Student t test; otherwise Mann Whitney U test was applied. […]

[4] = tested on: glyceraldehyde 3-phosphate dehydrogenase (GAPDH); assay: zebrafish in vivo liver transcription, semi-quantitative RT-PCR: GAPDH; conditions: 15 mg/kg intraperitoneally, single dose, 48 hr
Experimental: Adult zebrafish were purchased from a commercial fish supplier and acclimatized for at least two-weeks in 20 L tanks with flow-through freshwater at 22°C. A single dose of 15 mg/kg of 5α-cyprinol, 5β-cyprinol 27-sulfate, 5α-scymnol or 5β-scymnol-27 sulfate, dissolved in saline, was injected intraperitoneally. A control group was injected with saline. After 48 hr, the animals were decapitated and livers of three fish (n = 5 each group) were removed, pooled and weighed, totalizing 15 fish per group. Fish were not fed throughout the experimental period.
as §1, with “The PCR primers for CYP3C1 were designed using MacVector Software and primers for MDR1 were designed using Primer 3 Software (Whitehead Institute for Biomedical Research; [75]).” left out, “Purity and concentration of RNA of each sample were verified at 260 nm.” left out
The PXR, CYP3C1, ABCB5 and GAPDH transcript levels were quantified using Gel-Quant™ (Multiplexed Biotechologies) and β-actin was used to normalize the data. The Shapiro-Wilk W test was used to evaluate normality. When data were parametric the analysis was performed using Student t test; otherwise Mann Whitney U test was applied.

[5] = target: T2, Sea lamprey VDR (Petromyzon marinus, UniProt Q7ZZY9); type: cell-based; conditions: HepG2-NTCP cells, luciferase reporter; unit not given; also cells saying No effect
T2 sequence (Q7ZZY9 92-406): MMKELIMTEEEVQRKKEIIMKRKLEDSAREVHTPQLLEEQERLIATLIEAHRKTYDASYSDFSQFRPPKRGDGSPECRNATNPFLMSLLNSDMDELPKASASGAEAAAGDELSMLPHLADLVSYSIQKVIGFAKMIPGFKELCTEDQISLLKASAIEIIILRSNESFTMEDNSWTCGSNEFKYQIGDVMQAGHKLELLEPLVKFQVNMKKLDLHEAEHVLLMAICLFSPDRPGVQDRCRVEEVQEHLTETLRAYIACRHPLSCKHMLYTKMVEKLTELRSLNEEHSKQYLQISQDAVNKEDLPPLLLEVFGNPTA

## C[C@H](CCCC(CO)COS(=O)(=O)O)[C@H]1CC[C@H]2[C@@H]3[C@H](O)C[C@H]4C[C@H](O)CC[C@]4(C)[C@H]3C[C@H](O)[C@]12C (stereo partly drawn) [5α-Cyprinol 27-sulfate]
[1]
  Zebrafish VDR EC50 ± SD: No effect
[2]
  Ciona VDR/PXR EC50 ± SD: No effect
[3]; zebrafish, 15 mg/kg intraperitoneally, single dose, 48 hr
  liver transcription of PXR: 1.50 ± 0.67 arbitrary units normalized to β-actin
[4]
  liver transcription of GAPDH: 2.38 ± 0.79 arbitrary units normalized to β-actin
[5]
  Sea lamprey VDR EC50 ± SD: No effect

## C[C@H](CCCC(CO)CO)[C@H]1CC[C@H]2[C@@H]3[C@H](O)C[C@H]4C[C@H](O)CC[C@]4(C)[C@H]3C[C@H](O)[C@]12C [5α-Cyprinol, 5α-cholestan-3α,7α,12α,26,27-pentol]
[1]
  Zebrafish VDR EC50 ± SD: No effect
[2]
  Ciona VDR/PXR EC50 ± SD: No effect
[3]; ip, 15 mg/kg, 48 h
  liver transcription of PXR: 0.58 ± 0.33 arbitrary units normalized to β-actin
[4]
  liver transcription of GAPDH: 1.50 ± 0.88 arbitrary units normalized to β-actin
[5]
  Sea lamprey VDR EC50 ± SD: No effect
